According to article PMC2861369 (Current pharmaceutical biotechnology, 2009):

Target: T1, EH (recombinant mouse sEH) (Mus musculus, UniProt P34914)
T1 sequence (P34914 1-554): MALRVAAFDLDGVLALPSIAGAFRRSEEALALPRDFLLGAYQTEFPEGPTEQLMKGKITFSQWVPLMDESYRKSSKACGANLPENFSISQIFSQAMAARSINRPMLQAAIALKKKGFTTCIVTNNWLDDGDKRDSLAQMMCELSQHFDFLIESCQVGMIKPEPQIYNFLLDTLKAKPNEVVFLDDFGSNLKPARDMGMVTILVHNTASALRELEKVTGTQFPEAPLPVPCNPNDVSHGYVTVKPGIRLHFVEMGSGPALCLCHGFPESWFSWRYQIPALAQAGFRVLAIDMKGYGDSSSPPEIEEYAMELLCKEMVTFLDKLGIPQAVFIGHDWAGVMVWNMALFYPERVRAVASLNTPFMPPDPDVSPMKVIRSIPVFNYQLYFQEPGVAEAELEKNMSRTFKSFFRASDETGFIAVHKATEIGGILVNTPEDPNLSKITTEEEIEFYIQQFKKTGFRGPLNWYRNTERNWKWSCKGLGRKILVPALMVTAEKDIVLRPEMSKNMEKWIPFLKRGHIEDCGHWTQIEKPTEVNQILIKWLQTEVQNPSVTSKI
Experiment: Effect of EH on the fluorescence of naphthyl derivatives
Format: binding
Conditions: ex 330 nm, EH 0–100 nM

O=C(Nc1ccc(O)c2ccccc12)NC1CCCCC1 [XIIa] was tested, and the “Effect of EH on fluorescence of the naphthyl derivative (in words)” value was “appearance of a new peak and a clear enhancement of fluorescence”.
